Test results reported in ChEMBL document CHEMBL1151401, “Plant anticancer agents. XII. Isolation and structure elucidation of new cytotoxic quinones from Tabebuia cassinoides” (1982).
Values after ≈ are worked out from the molar mass of the structure shown. Active and inactive are the calls of the source. The calls are words filed in the database; no cut-off is given here.

Assays:
KB = assay: Cytotoxicity against human KB cells; assay type: functional; conditions: read-out: ED50 (the source's name)
P388 = assay: In vivo cytotoxicity against mouse P388 cells at upto 35 mg/kg; assay type: functional, organism-based; parameters: dose 35 mg/kg

CC(C)=CCC1=C(O)C(=O)c2ccccc2C1=O [LAPACHOL]
EC50 (KB): 4.4 µg/mL (≈ 18.2 µM)

CC(O)c1cc2c(o1)C(=O)c1c(O)cccc1C2=O (stereo not given)
EC50 (KB): 1 µg/mL (≈ 3.87 µM)

CC(=O)c1cc2c(o1)C(=O)c1ccccc1C2=O [NAPABUCASIN]
EC50 (KB): 1 µg/mL (≈ 4.16 µM)
Activity (P388): inactive

CC(O)c1cc2c(o1)C(=O)c1ccccc1C2=O (stereo not given)
EC50 (KB): 2 µg/mL (≈ 8.26 µM)
